The target of this experiment is hcGAS (Homo sapiens, UniProt Q8N884). As to the kind of experiment: hcGAS LCMS assay (direct measurement of cGAMP production). The experiment is classed as biochemical. The settings on record: 0.5 nM hcGAS, 100 μM ATP, 100 μM GTP, 25 nM dsDNA, 4 h incubation. As for the experimental part: cGAS catalyzes the cyclization of ATP and GTP to produce cGAMP, which is the activating ligand of STING. Human cGAS (hcGAS) inhibition can thus be quantified by measuring how much cGAMP is formed either indirectly, by monitoring ATP-depletion as in the hcGAS Kinase-Glo assay (as described below), or directly, such as using the hcGAS LCMS assay (as described below).
Compounds were tested for their h-cGAS inhibition activity using direct measurement of cGAMP production by LC/MS. Briefly, compounds were incubated with enzyme and substrates for 4 hours (see Table C), before the reaction was stopped with 3 volumes of 70/30 Acetonitrile/H2O mix containing 0.15 mM cGAMP-^13C10^5N5 as internal standard and mixed for […]. After centrifugation (3700 rpm, 10 min, 10° Celsius), […] of each reaction was collected and mixed to equal volume of Acetonitrile. Samples were then analyzed on Qexective (Column: XBridge BEH Amide Column, 130 Å, 3.5 μm, 3 mm×50 mm, Mobile phase A: 10 mM Ammonium acetate in 95/5% H2O/Acetonitrile (0.5% DMSO), Mobile phase B: Acetonitrile (0.5% DMSO).
The results of the assay, expressed as IC50 values, are reported in Table D with the following designations: A represents an IC50 value<0.005 μM; B represents an IC50 value≥0.005 μM and <0.02 μM, C represents an IC50 value≥0.02 μM and <0.06 μM; D represents an IC50 value≥0.06 and <0.2 μM; E represents an IC50 value≥0.2.

A value given as a limit tells only on which side of the number the result lay.

hcGAS, sequence (Q8N884 whole entry): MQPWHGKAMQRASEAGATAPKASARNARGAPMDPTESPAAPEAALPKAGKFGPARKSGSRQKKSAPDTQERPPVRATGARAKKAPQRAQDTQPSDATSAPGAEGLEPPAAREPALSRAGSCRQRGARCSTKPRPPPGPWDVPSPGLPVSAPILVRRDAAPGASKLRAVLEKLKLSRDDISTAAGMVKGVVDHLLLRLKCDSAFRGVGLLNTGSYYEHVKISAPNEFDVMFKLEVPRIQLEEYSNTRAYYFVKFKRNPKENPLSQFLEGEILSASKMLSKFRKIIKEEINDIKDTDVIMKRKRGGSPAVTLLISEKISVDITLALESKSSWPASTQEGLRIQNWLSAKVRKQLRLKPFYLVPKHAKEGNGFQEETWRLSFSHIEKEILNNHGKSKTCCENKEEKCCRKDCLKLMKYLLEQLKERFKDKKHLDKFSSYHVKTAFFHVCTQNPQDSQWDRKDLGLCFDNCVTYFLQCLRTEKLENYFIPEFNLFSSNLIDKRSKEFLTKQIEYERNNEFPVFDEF

`COc1c(N[C@H]2CCC[C@H]2O)cc(C(=O)Nc2nnc(-n3nccc3C)s2)oc1=O` [Compound 5, 4-(((1S,2R)-2-hydroxycyclopentyl)amino)-3-methoxy-N-(5-(5-methyl-1H-pyrazol-1-yl)-1,3,4-thiadiazol-2-yl)-2-oxo-2H-pyran-6-carboxamide] returned a concentration for half-maximal inhibition (IC50) of 0.005 to 0.02 µM.
The value for `COc1c(N[C@H]2CCC[C@H]2OCC(F)F)cc(C(=O)Nc2nnc(-n3nccc3C)s2)oc1=O` [Compound 206, 4-(((1S,2R)-2-(2,2-difluoroethoxy)cyclopentyl)amino)-3-methoxy-N-(5-(5-methyl-1H-pyrazol-1-yl)-1,3,4-thiadiazol-2-yl)-2-oxo-2H-pyran-6-carboxamide] was 0.005 to 0.02 µM; that for `COC[C@H](Nc1cc(C(=O)Nc2nnc(-c3c(Cl)ccn3C)s2)oc(=O)c1OC)c1ccccc1` [Compound 213, (R)-N-(5-(3-chloro-1-methyl-1H-pyrrol-2-yl)-1,3,4-thiadiazol-2-yl)-3-methoxy-4-((2-methoxy-1-phenylethyl)amino)-2-oxo-2H-pyran-6-carboxamide] was under 0.005 µM; that for `COc1c(NCCOC2CC2)cc(C(=O)Nc2nnc(-n3nccc3C)s2)oc1=O` [Compound 168, 4-((2-cyclopropoxyethyl)amino)-3-methoxy-N-(5-(5-methyl-1H-pyrazol-1-yl)-1,3,4-thiadiazol-2-yl)-2-oxo-2H-pyran-6-carboxamide] was 0.06 to 0.2 µM.
As for `COc1c(N[C@@H]2COC[C@@H]2OC)cc(C(=O)Nc2nnc(-n3nccc3C)s2)oc1=O` [Compound 162, 5-methoxy-4-{[(3R,4R)-4-methoxyoxolan-3-yl]amino}-N-[5-(5-methylpyrazol-1-yl)-1,3,4-thiadiazol-2-yl]-6-oxopyran-2-carboxamide], the IC50 was in the range of 0.005 to 0.02 µM.
Then `COCCOc1c(N[C@@H](COC)c2ccccc2)cc(C(=O)Nc2nnc(-c3c(Cl)ccn3C)s2)oc1=O` [Compound 201, (R)—N-(5-(3-chloro-1-methyl-1H-pyrrol-2-yl)-1,3,4-thiadiazol-2-yl)-4-((2-methoxy-1-phenylethyl)amino)-3-(2-methoxyethoxy)-2-oxo-2H-pyran-6-carboxamide], with under 0.005 µM; and `COC[C@H](Nc1cc(C(=O)Nc2nnc(-n3nccc3C)s2)oc(=O)c1OC)C1CC1` (single isomer, unassigned) [Compound 21*], with 0.005 to 0.02 µM.
Regarding “4-(((1S,2R)-2-(hydroxymethyl)cyclopentyl)amino)-3-methoxy-N-(5-(5-methyl-1H-pyrazol-1-yl)-1,3,4-thiadiazol-2-yl)-2-oxo-2H-pyran-6-carboxamide [Rac-55]”, the IC50 was at least 0.2 µM.
`COCCNc1cc(C(=O)Nc2nnc(-c3ccsc3Cl)s2)oc(=O)c1OC` [Compound 135, N-(5-(2-chlorothiophen-3-yl)-1,3,4-thiadiazol-2-yl)-3-methoxy-4-((2-methoxyethyl)amino)-2-oxo-2H-pyran-6-carboxamide] displayed an IC50 of 0.02 to 0.06 µM.
Compound `COc1c(NCCO[C@@H]2CCOC2)cc(C(=O)Nc2nnc(-n3nccc3C)s2)oc1=O` [Compound 169, 5-methoxy-N-[5-(5-methylpyrazol-1-yl)-1,3,4-thiadiazol-2-yl]-6-oxo-4-({2-[(3R)-oxolan-3-yloxy]ethyl}amino)pyran-2-carboxamide] had an IC50 of at least 0.2 µM.
Turning to `COc1c(N[C@@H]2CCC[C@@H]2O)cc(C(=O)Nc2nnc(-c3c(Cl)ccn3C)s2)oc1=O` [Compound 197, N-(5-(3-chloro-1-methyl-1H-pyrrol-2-yl)-1,3,4-thiadiazol-2-yl)-4-(((1R,2S)-2-hydroxycyclopentyl)amino)-3-methoxy-2-oxo-2H-pyran-6-carboxamide], the half-inhibitory concentration (IC50) lay in the range of 0.005 to 0.02 µM.
Regarding `COc1c(NCC2(OC)CC2)cc(C(=O)Nc2nnc(-n3nccc3C)s2)oc1=O` [Compound 190], the half-maximal inhibitory concentration (IC50) fell in the range of 0.005 to 0.02 µM.
Consider `COCCOc1c(N[C@@H](COC)c2ccccc2)cc(C(=O)Nc2nnc(-n3nccc3C)s2)oc1=O` [Compound 200, (R)-4-((2-Methoxy-1-phenylethyl)amino)-3-(2-methoxyethoxy)-N-(5-(5-methyl-1H-pyrazol-1-yl)-1,3,4-thiadiazol-2-yl)-2-oxo-2H-pyran-6-carboxamide], for which the IC50 was under 0.005 µM.
The value for `COc1c(N[C@H]2CCCC[C@H]2OC)cc(C(=O)Nc2nnc(-n3nccc3C)s2)oc1=O` [Compound 27, 3-methoxy-4-(((1S,2R)-2-methoxycyclohexyl)amino)-N-(5-(5-methyl-1H-pyrazol-1-yl)-1,3,4-thiadiazol-2-yl)-2-oxo-2H-pyran-6-carboxamide] was 0.005 to 0.02 µM.
Take `COC[C@@H](Nc1cc(C(=O)Nc2nnc(-n3nccc3C)s2)oc(=O)c1OC)C1CC1` (single isomer, unassigned) [Compound 22*]: the concentration for half-maximal inhibition (IC50) is under 0.005 µM.
Take `CC[C@@H](COC)Nc1cc(C(=O)Nc2nnc(-n3nccc3C)s2)oc(=O)c1OC` (single isomer, unassigned) [192*]: the IC50 was 0.005 to 0.02 µM.
The compound `COCC(C)(C)COc1c(NC23CC(C2)C3)cc(C(=O)Nc2nnc(-n3nccc3C)s2)oc1=O` [Compound 149, 4-(bicyclo[1,1,1]pentan-1-ylamino)-(3-methoxy-2,2-dimethylpropoxy)-N-(5-(5-methyl-1H-pyrazol-1-yl)-1,3,4-thiadiazol-2-yl)-2-oxo-2H-pyran-6-carboxamide] displayed an IC50 of 0.005 to 0.02 µM.
Turning to `COc1c(NC[C@@H]2CCO2)cc(C(=O)Nc2nnc(-n3nccc3C)s2)oc1=O` [Compound 93, (S)-3-methoxy-N-(5-(5-methyl-1H-pyrazol-1-yl)-1,3,4-thiadiazol-2-yl)-4-((oxetan-2-ylmethyl)amino)-2-oxo-2H-pyran-6-carboxamide], the IC50 lay within 0.02 to 0.06 µM.
Then `COc1c(N[C@@H]2CCC[C@@H]2OC)cc(C(=O)Nc2nnc(-n3nccc3C)s2)oc1=O` (single isomer, unassigned) [215*], with 0.005 to 0.02 µM; and `COc1c(N[C@@H]2COC[C@H]2OC)cc(C(=O)Nc2nnc(-n3nccc3C)s2)oc1=O` [Compound 102, 3-methoxy-4-(((3R,4S)-4-methoxytetrahydrofuran-3-yl)amino)-N-(5-(5-methyl-1H-pyrazol-1-yl)-1,3,4-thiadiazol-2-yl)-2-oxo-2H-pyran-6-carboxamide], with 0.005 to 0.02 µM; and `COCCNc1cc(C(=O)Nc2nnc(-n3nccc3N)s2)oc(=O)c1OC` [Compound 205, N-(5-(5-amino-1H-pyrazol-1-yl)-1,3,4-thiadiazol-2-yl)-3-methoxy-4-((2-methoxyethyl)amino)-2-oxo-2H-pyran-6-carboxamide], with 0.005 to 0.02 µM.
In turn, `COCC1(Nc2cc(C(=O)Nc3nnc(-n4nccc4C)s3)oc(=O)c2OC)CCC1` [Compound 196] gave an IC50 of 0.005 to 0.02 µM.
As for `COc1c(N[C@H]2COC[C@@H]2OC)cc(C(=O)Nc2nnc(-n3nccc3C)s2)oc1=O` [Compound 13, 3-methoxy-4-(((3S,4R)-4-methoxytetrahydrofuran-3-yl)amino)-N-(5-(5-methyl-1H-pyrazol-1-yl)-1,3,4-thiadiazol-2-yl)-2-oxo-2H-pyran-6-carboxamide], the IC50 fell in the range of 0.005 to 0.02 µM.
`COC[C@@H]1CCC[C@@H]1Nc1cc(C(=O)Nc2nnc(-n3nccc3C)s2)oc(=O)c1OC` (single isomer, unassigned) [Compound 79*] came in with an IC50 of 0.06 to 0.2 µM.
On to `COc1c(NCCOC(F)F)cc(C(=O)Nc2nnc(-n3nccc3C)s2)oc1=O` [Compound 208, 4-((2-(difluoromethoxy)ethyl)amino)-3-methoxy-N-(5-(5-methyl-1H-pyrazol-1-yl)-1,3,4-thiadiazol-2-yl)-2-oxo-2H-pyran-6-carboxamide], for which the IC50 fell in the range of 0.005 to 0.02 µM.

Values taken from patent US20240270740A1, “INHIBITORS OF CYCLIC GMP-AMP SYNTHASE AND USES THEREOF” (Ventus Therapeutics U.S., Inc., priority 2022, published 2024).
